{"source": "ChEMBL document CHEMBL5465560", "about": "“Selectivity Literature for EUbOPEN Chemogenomic Library” (2024)", "key": {"[1]": {"target": "Cyclin-dependent kinase 8 (Homo sapiens, UniProt P49336)", "sequence (P49336 whole entry)": "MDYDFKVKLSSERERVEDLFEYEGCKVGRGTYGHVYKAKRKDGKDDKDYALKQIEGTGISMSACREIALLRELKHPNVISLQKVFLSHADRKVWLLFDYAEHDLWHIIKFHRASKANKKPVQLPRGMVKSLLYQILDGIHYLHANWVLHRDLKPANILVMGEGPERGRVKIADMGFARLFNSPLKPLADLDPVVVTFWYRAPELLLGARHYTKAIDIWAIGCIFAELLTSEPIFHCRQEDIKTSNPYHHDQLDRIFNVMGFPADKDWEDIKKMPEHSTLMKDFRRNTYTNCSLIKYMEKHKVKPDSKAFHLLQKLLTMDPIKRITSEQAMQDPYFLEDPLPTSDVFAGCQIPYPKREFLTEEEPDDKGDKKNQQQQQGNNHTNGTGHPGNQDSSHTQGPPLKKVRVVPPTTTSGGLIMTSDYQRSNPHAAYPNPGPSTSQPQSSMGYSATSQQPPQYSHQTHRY", "assay": "Selectivity interaction (KinomeScan (DiscoverX)) EUB0000045b CDK8"}, "[2]": {"target": "T1, cGMP-dependent protein kinase 1 (Homo sapiens) (UniProt Q13976)", "T1 sequence (whole entry)": "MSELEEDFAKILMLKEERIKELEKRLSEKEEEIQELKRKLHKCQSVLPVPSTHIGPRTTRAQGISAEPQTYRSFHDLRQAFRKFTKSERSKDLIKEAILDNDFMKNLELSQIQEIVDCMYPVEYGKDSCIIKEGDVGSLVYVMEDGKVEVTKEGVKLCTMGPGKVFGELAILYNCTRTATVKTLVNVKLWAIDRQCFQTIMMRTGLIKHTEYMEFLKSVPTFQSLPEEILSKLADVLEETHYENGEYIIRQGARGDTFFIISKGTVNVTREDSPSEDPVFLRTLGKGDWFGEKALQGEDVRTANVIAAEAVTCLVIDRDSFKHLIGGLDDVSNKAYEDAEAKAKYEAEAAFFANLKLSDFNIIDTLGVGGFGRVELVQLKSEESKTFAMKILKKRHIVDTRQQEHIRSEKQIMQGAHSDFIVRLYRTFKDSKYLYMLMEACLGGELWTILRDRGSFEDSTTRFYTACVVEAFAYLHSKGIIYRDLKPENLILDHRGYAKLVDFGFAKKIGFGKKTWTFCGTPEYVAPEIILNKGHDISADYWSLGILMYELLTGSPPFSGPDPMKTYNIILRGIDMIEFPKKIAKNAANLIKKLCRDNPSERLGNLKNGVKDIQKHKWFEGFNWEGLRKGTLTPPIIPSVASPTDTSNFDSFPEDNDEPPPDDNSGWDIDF", "assay": "Selectivity interaction (KinomeScan (DiscoverX)) EUB0000695a PRKG1", "conditions": "at 100 nM"}, "[3]": {"target": "Bromodomain testis-specific protein (Homo sapiens) (UniProt Q58F21)", "assay": "Selectivity interaction (Bromodomain panel (DSF asssay)) EUB0000270b BRDT"}, "[4]": {"target": "T2, Tyrosine-protein kinase Mer (Homo sapiens) (UniProt Q12866)", "T2 sequence (whole entry)": "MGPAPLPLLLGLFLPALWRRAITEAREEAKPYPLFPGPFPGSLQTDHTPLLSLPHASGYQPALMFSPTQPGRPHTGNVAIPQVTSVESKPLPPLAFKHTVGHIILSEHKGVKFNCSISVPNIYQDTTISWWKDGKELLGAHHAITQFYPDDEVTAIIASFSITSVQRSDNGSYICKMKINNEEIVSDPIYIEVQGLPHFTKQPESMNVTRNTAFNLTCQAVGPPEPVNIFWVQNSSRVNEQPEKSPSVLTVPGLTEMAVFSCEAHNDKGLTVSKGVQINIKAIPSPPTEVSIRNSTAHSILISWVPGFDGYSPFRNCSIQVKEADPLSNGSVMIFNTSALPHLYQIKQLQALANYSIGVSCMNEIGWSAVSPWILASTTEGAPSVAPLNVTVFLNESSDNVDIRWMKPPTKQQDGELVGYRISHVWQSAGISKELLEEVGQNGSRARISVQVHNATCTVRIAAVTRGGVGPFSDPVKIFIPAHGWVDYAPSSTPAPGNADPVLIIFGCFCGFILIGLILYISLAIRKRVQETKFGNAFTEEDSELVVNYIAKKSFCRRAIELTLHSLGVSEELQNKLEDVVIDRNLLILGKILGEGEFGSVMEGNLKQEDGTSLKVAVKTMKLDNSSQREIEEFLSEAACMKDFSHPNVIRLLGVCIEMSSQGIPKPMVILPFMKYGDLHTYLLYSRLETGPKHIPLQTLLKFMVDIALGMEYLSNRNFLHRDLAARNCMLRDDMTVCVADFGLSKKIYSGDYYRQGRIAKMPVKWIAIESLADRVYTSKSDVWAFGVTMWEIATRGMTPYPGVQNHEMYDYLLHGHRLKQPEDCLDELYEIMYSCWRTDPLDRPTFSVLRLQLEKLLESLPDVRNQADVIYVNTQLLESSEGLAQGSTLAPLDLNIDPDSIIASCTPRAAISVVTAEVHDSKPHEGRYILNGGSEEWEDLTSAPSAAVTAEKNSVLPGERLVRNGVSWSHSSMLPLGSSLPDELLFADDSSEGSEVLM", "assay": "Selectivity interaction (KinomeScan (DiscoverX)) EUB0001049a MERTK", "conditions": "at 1 µM"}, "[5]": {"target": "T3, Cyclin-dependent kinase 11A (Homo sapiens) (UniProt Q9UQ88)", "T3 sequence (whole entry)": "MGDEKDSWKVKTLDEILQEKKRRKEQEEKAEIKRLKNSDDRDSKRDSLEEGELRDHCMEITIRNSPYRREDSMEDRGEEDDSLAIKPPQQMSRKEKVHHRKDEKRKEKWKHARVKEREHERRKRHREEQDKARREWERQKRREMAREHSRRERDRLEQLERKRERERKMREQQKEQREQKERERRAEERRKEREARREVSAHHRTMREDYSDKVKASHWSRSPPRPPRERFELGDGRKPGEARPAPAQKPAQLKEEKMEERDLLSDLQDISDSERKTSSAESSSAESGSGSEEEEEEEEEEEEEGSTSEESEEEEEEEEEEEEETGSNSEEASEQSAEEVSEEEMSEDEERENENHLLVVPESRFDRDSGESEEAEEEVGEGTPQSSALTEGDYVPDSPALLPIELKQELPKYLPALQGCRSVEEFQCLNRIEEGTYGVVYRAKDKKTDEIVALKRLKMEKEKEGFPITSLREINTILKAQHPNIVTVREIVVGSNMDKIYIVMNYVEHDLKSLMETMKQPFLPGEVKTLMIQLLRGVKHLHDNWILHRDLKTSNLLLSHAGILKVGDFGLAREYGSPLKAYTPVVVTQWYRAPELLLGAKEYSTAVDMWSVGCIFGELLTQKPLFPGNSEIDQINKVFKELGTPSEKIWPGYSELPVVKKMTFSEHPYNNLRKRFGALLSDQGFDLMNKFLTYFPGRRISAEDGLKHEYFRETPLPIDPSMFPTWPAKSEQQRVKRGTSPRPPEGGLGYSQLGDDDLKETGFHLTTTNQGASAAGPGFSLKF", "assay": "Selectivity interaction (ActivX KiNativ screen (ex vivo kinase selectivity in human PBMCs)) EUB0001619a CDK11A", "type": "cell-based", "conditions": "PBMC, at 1 µM"}, "[6]": {"target": "Serine/threonine-protein kinase 10 (Homo sapiens) (UniProt O94804)", "sequence (O94804 whole entry, looked up)": "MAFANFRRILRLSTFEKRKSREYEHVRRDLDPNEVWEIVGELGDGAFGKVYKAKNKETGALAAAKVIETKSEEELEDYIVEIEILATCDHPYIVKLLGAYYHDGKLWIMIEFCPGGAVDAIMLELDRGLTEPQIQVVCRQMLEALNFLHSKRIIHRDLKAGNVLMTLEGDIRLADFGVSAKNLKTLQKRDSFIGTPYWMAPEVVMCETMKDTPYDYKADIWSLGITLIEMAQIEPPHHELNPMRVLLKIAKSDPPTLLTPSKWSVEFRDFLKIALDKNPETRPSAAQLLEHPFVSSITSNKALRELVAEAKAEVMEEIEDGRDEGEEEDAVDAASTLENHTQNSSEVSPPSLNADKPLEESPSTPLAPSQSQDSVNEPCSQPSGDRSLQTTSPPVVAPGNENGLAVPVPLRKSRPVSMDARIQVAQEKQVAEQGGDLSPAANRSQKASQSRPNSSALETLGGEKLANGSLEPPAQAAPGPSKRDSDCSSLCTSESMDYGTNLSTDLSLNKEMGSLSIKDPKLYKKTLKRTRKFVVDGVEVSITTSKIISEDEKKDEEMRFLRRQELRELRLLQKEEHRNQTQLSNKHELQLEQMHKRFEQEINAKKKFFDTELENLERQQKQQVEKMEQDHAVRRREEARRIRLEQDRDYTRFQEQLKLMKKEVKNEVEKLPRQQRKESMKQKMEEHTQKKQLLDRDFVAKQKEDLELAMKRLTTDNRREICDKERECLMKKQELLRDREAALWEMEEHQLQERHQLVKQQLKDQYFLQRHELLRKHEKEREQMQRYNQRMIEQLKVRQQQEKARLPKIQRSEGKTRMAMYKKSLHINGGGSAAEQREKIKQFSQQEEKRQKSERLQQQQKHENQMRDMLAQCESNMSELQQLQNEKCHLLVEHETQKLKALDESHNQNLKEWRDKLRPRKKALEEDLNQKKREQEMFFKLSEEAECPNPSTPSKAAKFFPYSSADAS", "assay": "Selectivity interaction (ActivX KiNativ screen (ex vivo kinase selectivity in human PBMCs)) EUB0001619a STK10", "type": "cell-based", "conditions": "PBMC, at 1 µM"}, "[7]": {"target": "Protein arginine N-methyltransferase 8 (Homo sapiens, UniProt Q9NR22)", "sequence (Q9NR22 whole entry)": "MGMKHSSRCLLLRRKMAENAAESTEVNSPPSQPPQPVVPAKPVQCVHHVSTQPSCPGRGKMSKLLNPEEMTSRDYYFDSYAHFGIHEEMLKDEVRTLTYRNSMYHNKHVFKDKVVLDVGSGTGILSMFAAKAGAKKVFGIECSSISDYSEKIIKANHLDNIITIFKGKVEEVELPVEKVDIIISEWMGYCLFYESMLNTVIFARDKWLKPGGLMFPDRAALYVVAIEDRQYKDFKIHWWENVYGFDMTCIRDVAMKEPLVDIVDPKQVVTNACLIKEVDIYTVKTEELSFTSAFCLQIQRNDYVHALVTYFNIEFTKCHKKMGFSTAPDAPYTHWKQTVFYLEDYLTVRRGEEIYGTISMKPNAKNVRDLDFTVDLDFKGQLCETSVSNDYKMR", "assay": "Selectivity interaction (Scintillation proximity assays) EUB0000255b PRMT8"}, "[8]": {"target": "Ribosomal protein S6 kinase alpha-3 (Homo sapiens, UniProt P51812)", "sequence (P51812 whole entry)": "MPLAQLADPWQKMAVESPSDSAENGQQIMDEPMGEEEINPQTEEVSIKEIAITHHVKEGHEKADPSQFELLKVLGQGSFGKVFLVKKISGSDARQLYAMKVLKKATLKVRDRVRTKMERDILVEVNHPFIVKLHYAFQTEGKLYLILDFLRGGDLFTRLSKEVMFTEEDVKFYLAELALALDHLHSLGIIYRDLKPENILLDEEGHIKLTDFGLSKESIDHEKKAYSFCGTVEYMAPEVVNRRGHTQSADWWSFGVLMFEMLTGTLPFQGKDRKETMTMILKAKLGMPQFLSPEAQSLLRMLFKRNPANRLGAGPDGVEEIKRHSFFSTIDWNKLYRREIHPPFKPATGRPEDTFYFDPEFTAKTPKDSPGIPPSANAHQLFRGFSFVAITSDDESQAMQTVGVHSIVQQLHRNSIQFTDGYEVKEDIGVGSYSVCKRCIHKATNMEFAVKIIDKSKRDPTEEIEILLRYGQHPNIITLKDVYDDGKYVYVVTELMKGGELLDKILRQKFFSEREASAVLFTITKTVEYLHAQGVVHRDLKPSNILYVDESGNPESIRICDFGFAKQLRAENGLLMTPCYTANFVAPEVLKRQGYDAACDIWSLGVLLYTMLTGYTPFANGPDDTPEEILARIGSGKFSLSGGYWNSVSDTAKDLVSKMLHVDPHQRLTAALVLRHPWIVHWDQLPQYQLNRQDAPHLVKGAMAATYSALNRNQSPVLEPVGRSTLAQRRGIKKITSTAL", "assay": "Selectivity interaction (ActivX KiNativ screen (kinase selectivity in THP-1 cell lysates)) EUB0000639a RPS6KA3", "type": "subcellular", "conditions": "lysate, at 0.04 µM"}, "[9]": {"target": "Receptor-type tyrosine-protein kinase FLT3 (Homo sapiens) (UniProt P36888)", "sequence (P36888 whole entry)": "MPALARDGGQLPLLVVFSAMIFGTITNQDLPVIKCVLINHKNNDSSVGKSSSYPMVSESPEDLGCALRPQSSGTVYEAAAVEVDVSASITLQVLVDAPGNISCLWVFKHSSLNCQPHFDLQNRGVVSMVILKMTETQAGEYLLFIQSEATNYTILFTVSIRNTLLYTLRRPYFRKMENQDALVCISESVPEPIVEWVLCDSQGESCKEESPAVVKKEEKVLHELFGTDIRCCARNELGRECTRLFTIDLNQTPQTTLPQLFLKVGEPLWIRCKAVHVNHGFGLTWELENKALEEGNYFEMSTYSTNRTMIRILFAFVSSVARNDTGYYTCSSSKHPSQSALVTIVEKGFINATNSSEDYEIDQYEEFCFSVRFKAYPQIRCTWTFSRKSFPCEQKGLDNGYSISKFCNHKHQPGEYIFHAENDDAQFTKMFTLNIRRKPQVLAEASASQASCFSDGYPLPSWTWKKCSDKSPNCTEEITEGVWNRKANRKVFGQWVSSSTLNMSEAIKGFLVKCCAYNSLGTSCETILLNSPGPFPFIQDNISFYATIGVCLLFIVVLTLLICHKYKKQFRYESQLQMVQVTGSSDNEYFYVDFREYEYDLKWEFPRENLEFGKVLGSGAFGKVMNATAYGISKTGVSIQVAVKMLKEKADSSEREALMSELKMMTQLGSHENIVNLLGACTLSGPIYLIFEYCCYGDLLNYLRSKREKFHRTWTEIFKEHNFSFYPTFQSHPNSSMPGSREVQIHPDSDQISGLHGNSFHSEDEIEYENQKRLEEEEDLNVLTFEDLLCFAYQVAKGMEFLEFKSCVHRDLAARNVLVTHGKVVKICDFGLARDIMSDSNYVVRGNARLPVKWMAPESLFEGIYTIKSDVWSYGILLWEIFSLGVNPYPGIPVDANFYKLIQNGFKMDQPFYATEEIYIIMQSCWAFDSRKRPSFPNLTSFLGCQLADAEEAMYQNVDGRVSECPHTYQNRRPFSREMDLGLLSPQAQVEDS", "assay": "Selectivity interaction (Kinase panel (Invitrogen)) EUB0000639a FLT3", "conditions": "at 200 nM"}}, "data": [{"compound": "C=CC(=O)Nc1cc(-n2c(=O)ccc3cnc4ccc(-c5ccc(NS(C)(=O)=O)cc5)cc4c32)ccc1C", "values": [{"measurement": "% of control", "setting": "[1]; at 1 µM", "value": 76, "unit": "%"}, {"measurement": "% of control", "setting": "[1]; at 10 µM", "value": 62, "unit": "%"}]}, {"compound": "Cc1cc(F)c(C(=O)Nc2cccc(-c3nncn3C(C)C)n2)cc1-n1cnc(C2CC2)c1", "values": [{"measurement": "% of control", "setting": "[2]", "value": 100, "unit": "%"}]}, {"compound": "Cc1cc(CN)cc(C)c1-c1ncn(C)c1-c1cncn1C", "values": [{"measurement": "dTM", "setting": "[3]", "value": -1.97, "unit": "K"}]}, {"compound": "COc1cc(Nc2nc(C)cc(-c3cnn4nc(OC)ccc34)n2)cc(C(F)(F)F)c1", "values": [{"measurement": "% of control", "setting": "[4]", "value": 98, "unit": "%"}]}, {"compound": "N#Cc1cccc(-c2c[nH]c3ncnc(N4CCOCC4)c23)c1", "values": [{"measurement": "% of inhibition", "setting": "[5]", "value": 36, "unit": "%"}, {"measurement": "% of inhibition", "setting": "[6]", "value": 54, "unit": "%"}]}, {"compound": "COCCN1CCC(c2cc(CN(C)C(=O)c3cccc(Oc4ccccc4)c3)ccn2)CC1", "values": [{"measurement": "IC50", "setting": "[7]", "value": "> 10", "unit": "µM"}]}, {"compound": "CC[C@@H]1[C@H](F)C(=O)N[C@@H]1COc1nccc2cc(C(N)=O)c(OC)cc12", "note": "[ZIMLOVISERTIB]", "values": [{"measurement": "% of inhibition", "setting": "[8]", "value": -18.2, "unit": "%"}, {"measurement": "% of inhibition", "setting": "[9]", "value": 29.4, "unit": "%"}]}]}
